Test results published in publication PMC9169222, “Impedance-Based Phenotypic Readout of Transporter Function: A Case for Glutamate Transporters” (Frontiers in Pharmacology, 2022).
Counter-ions that a name gives are not always drawn.

Columns and labels:
[1] = system: 1321N1 cells; experiment: Impedance-based phenotypic assay on 1321N1 cells; type: cell-based, human; conditions: 1 mM
Procedure: (§1) Label-free whole-cell assays, based on cell-induced changes in impedance, were performed using the xCELLigence real-time cell analyzer (RTCA) system (ACEA Biosciences, San Diego, CA, United States) as described previously ([Vlachodimou et al., 2019]; [Sijben et al., 2021a], [2021b]). In short, cells are cultured in medium on gold-plated electrodes in microwell E-plates. Per well impedance is continuously measured at 10 kHz and is converted to the unitless parameter Cell Index (CI) by the following formula: CI=(Zi−Z0)Ω/15Ω where Zi is the impedance at any given time point and Z0 is the baseline impedance measured at the start of each experiment ([Kho et al., 2015]).
(§2) Assays were performed at 37°C and 5% CO2 in 96-well PET E-plates in a total volume of 100 µl per well. Prior to cell seeding, the baseline impedance (Z0) was measured in the recording station in 40 µl (two compound additions) or 45 µl (one compound addition) medium in the presence (+) or absence (−) of 1 μg/ml dox. […]
Experimental data was recorded using RTCA Software v2.0 or v2.1.1 (ACEA Biosciences). […] The potency values of substrates and inhibitory potencies of EAAT inhibitors were determined by fitting the net AUC data to a sigmoidal concentration-effect curve with a variable slope.

[2] = target: T1, EAAT4 (JumpIn-EAAT4 cells) (Homo sapiens, UniProt P48664); experiment: Impedance-based phenotypic assay on JumpIn-EAAT4 cells; type: cell-based; conditions: JumpIn-EAAT4, 1 mM L-glu, p = 0.093
T1 construct: expressed in transfected cells; host or cells: Jump In T-REx HEK 293
T1 sequence (P48664 1-564): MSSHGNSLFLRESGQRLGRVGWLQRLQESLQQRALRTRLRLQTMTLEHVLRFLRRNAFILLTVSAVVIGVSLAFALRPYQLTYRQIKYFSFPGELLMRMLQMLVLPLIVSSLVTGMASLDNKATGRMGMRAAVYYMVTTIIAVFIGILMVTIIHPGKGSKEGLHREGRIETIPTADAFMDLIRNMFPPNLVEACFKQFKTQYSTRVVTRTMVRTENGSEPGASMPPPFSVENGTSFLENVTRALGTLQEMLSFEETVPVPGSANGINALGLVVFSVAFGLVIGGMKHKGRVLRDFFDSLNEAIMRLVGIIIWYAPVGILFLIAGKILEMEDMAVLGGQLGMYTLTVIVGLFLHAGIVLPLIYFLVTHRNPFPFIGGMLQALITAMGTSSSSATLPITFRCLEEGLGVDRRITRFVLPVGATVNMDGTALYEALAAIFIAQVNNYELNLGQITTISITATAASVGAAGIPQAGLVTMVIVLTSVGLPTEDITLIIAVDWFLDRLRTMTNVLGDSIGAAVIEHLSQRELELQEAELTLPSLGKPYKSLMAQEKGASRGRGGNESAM
Procedure: as §1, §2
(§3) On the day of the experiment, JumpIn-EAAT cells grown to 70–80% confluence were trypsinized (0.25% trypsin in PBS/EDTA), counted and seeded in the E-plate in a volume of 50 μl at 60,000 cells/well. […] Cell growth was recorded overnight for 22 h. […] After stimulation the impedance was measured for at least 2 h. […]
(§4) Experimental data was recorded using RTCA Software v2.0 or v2.1.1 (ACEA Biosciences). […]

[3] = target: T2, EAAT5 (JumpIn-EAAT5 cells) (Homo sapiens, UniProt O00341); experiment: Impedance-based phenotypic assay on JumpIn-EAAT5 cells; type: cell-based; conditions: JumpIn-EAAT5, 1 mM L-glu, p = 0.0032
T2 construct: expressed in transfected cells; host or cells: Jump In T-REx HEK 293
T2 sequence (O00341 whole entry): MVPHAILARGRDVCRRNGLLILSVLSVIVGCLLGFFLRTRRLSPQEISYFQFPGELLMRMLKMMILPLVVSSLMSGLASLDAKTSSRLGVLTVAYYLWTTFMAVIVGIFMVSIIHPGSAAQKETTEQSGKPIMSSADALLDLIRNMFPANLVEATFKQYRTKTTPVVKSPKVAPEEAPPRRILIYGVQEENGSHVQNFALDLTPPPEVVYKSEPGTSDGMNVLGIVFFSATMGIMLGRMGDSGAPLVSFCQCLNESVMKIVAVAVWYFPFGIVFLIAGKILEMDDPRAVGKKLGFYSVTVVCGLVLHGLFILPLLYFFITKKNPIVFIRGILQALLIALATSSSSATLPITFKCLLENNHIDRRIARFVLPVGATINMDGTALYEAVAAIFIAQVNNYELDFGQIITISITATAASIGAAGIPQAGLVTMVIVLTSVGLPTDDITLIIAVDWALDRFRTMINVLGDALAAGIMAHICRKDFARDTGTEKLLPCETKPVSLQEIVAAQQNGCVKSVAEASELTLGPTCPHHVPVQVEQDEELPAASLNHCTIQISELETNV
Procedure: as §1, §2, §3, §4

[4] = system: JumpIn-EAAT1-LifeAct-GFP cells; experiment: Automated confocal microscopy of the actin cytoskeleton (cell spreading); type: cell-based, human; conditions: dox-induced cells, 1 mM, within 2 h
Procedure: For visualization of the actin cytoskeleton, JumpIn-EAAT1 cells were transduced with a lentiviral GFP-LifeAct cDNA expression vector and were maintained in culture medium containing 2 μg/ml puromycin to select for successfully transduced cells.
JumpIn-EAAT1-LifeAct-GFP cells were seeded at 20,000 cells/well on a SCREENSTAR black-walled clear-bottom 96-well culture plate in 90 µl culture medium and grown for 24 h at 37°C and 5% CO2. […] Microscopy was performed on a Nikon Eclipse Ti2 C2+ confocal microscope (Nikon, Amsterdam, Netherlands). This system was equipped with a 37°C incubation chamber, an automated xy-stage, an integrated Perfect Focus System (PFS) and 408, 488, and 561 nm lasers. The system was controlled by Nikon’s NIS software. All images were acquired using a Plan-Apochromat ×20 objective with 0.75 NA, at a resolution of 512 × 512 pixels.

## N[C@@H](CCC(=O)O)C(=O)O [L-glutamate, L-glutamic acid monosodium salt monohydrate]
[1]
  Cellular response within 180 min: did not show a substantial cellular response
[2]
  Response in dox-induced vs non-induced cells: not significant
[3]
  Response in dox-induced vs non-induced cells: significantly higher
[4]
  Change in cell morphology after stimulation: drastically extend their actin cytoskeleton outward
